Reference: PMC10101933 (European journal of medicinal chemistry, 2023)
Values belong to the compound of their own block, whether it stands above or below them.

Key:
[1] = tested on: Nrf2 target genes (GSTM3, HMOX1 and NQO1); experiment: RT-qPCR of Nrf2-ARE regulated genes in NCM460D cells; format: cell-based; details: 100 μM; for induction of the Nrf2 target genes (HMOX1, GSTM3, NQO1), in words: vs GAPDH and HPRT housekeeping genes
[2] = molecular target: T1, Keap1 Kelch domain protein (Homo sapiens, UniProt Q14145); experiment: Time-resolved fluorescence resonance energy transfer; format: binding
[3] = molecular target: T1, Keap1 Kelch domain protein; experiment: Fluorescence polarization; format: binding

T1 sequence (Q14145 321-609 limits assumed): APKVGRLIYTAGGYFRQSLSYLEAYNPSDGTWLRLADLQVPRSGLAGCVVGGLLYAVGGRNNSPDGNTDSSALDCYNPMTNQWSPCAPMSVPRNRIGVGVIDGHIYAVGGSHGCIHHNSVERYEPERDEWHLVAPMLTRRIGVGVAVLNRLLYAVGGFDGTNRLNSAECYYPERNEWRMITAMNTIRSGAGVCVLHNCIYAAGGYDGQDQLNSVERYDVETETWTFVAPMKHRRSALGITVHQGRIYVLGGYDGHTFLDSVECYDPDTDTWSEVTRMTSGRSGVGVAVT

SMILES: COc1ccc(-c2cc(N(CC(=O)O)S(=O)(=O)c3ccc(OC)cc3)c3ccccc3c2N(CC(=O)O)S(=O)(=O)c2ccc(OC)cc2)cc1 [Compound 12b, 2,2’-((2-(4-Methoxyphenyl)naphthalene-1,4-diyl)bis(((4-methoxyphenyl)sulfonyl)azanediyl))diacetic acid]
induction of the Nrf2 target genes (HMOX1, GSTM3, NQO1), in words [1]: significant induction

SMILES: COc1ccc(S(=O)(=O)N(CC(=O)O)c2cc(-c3ccc(C#N)cc3)c(N(CC(=O)O)S(=O)(=O)c3ccc(OC)cc3)c3ccccc23)cc1 [Compound 12c, 2,2’-((2-(4-Cyanophenyl)naphthalene-1,4-diyl)bis(((4-methoxyphenyl)sulfonyl)azanediyl))diacetic acid]
induction of the Nrf2 target genes (HMOX1, GSTM3, NQO1), in words [1]: no induction

SMILES: COc1ccc(S(=O)(=O)N(CC(=O)O)c2cc(-c3ccc(N4C(=O)c5ccccc5C4=O)cc3)c(N(CC(=O)O)S(=O)(=O)c3ccc(OC)cc3)c3ccccc23)cc1 [Compound 12d, 2,2’-((2-(4-(1,3-Dioxoisoindolin-2-yl)phenyl)naphthalene-1,4-diyl)bis(((4-methoxyphenyl)sulfonyl)azanediyl))diacetic acid]
induction of the Nrf2 target genes (HMOX1, GSTM3, NQO1), in words [1]: significant induction

fold decrease in potency relative to 2a ([2]; as indicated by TR-FRET IC50 and Ki): 3 fold
SMILES: COc1ccc(S(=O)(=O)N(CC(N)=O)c2cc(CCC(=O)O)c(N(CC(N)=O)S(=O)(=O)c3ccc(OC)cc3)c3ccccc23)cc1 [Compound 17a, 3-(1,4-Bis((N-(2-amino-2-oxoethyl)-4-methoxyphenyl)sulfonamido)naphthalen-2-yl)propanoic acid]

fold increase in binding affinity vs 17b ([2]; as indicated by the TR-FRET Ki): 2 fold
SMILES: COc1ccc(S(=O)(=O)N(CC(=O)O)c2cc(CCC(=O)N3CCOCC3)c(N(CC(=O)O)S(=O)(=O)c3ccc(OC)cc3)c3ccccc23)cc1 [Compound 17c, 2,2’-((2-(3-Morpholino-3-oxopropyl)naphthalene-1,4-diyl)bis(((4-methoxyphenyl)sulfonyl)azanediyl))diacetic acid]
induction of the Nrf2 target genes (HMOX1, GSTM3, NQO1), in words [1]: significant induction

fold drop in inhibitory activity vs 2a ([2]; as indicated by the Ki value from the TR-FRET assay): ~2 fold
SMILES: COc1ccc(S(=O)(=O)N(CC(=O)O)c2cc(CCC(N)=O)c(N(CC(=O)O)S(=O)(=O)c3ccc(OC)cc3)c3ccccc23)cc1 [Compound 21, 2,2’-((2-(3-Amino-3-oxopropyl)naphthalene-1,4-diyl)bis(((4-methoxyphenyl)sulfonyl)azanediyl))diacetic acid]

Ki value (in words) ([2]; from TR-FRET assay): subnanomolar range
SMILES: COc1ccc(S(=O)(=O)N(CC(=O)O)c2cc(CCCN3C(=O)c4ccccc4C3=O)c(N(CC(=O)O)S(=O)(=O)c3ccc(OC)cc3)c3ccccc23)cc1 [Compound 24a, 2,2’-((2-(3-(1,3-Dioxoisoindolin-2-yl)propyl)naphthalene-1,4-diyl)bis(((4-methoxyphenyl)sulfonyl)azanediyl))diacetic acid]
mRNA levels of GSTM3, HMOX1 and NQO1, fold vs vehicle (DMSO) control [1]: 2.4–11.7 fold | induction of the Nrf2 target genes (HMOX1, GSTM3, NQO1), in words [1]: significant induction

SMILES: COc1ccc(S(=O)(=O)N(CC(=O)O)c2cc(CCCN(C)Cc3ccccc3)c(N(CC(=O)O)S(=O)(=O)c3ccc(OC)cc3)c3ccccc23)cc1 [Compound 24b, 2,2’-((2-(3-(Benzyl(methyl)amino)propyl)naphthalene-1,4-diyl)bis(((4-methoxyphenyl)sulfonyl)azanediyl))diacetic acid]
fold reduction in potency vs 24a ([2]; TR-FRET assay): more than 20 fold | IC50 [3]: 276 ± 17 nM
